Laboratory results taken from ChEMBL document CHEMBL5212743, “Selectivity Literature for EUbOPEN Chemogenomics Library wave 3” (2023).

Experiments:
[1] = molecular target: Mitogen-activated protein kinase 10 (Homo sapiens, UniProt P53779); assay: Selectivity interaction (KinomeScan (DiscoverX)) EUB0000704a MAPK10; conditions: at 1 µM
[2] = molecular target: T1, Sodium-dependent dopamine transporter (Homo sapiens, UniProt Q01959); assay: Selectivity interaction (GPCR panel (PDSP screen)) EUB0000704a SLC6A3
[3] = molecular target: Serine/threonine-protein kinase PLK1 (Homo sapiens, UniProt P53350); assay: Selectivity interaction (KinomeScan (DiscoverX)) EUB0000704a PLK1; conditions: at 1 µM
[4] = molecular target: Serine/threonine-protein kinase WNK4 (Homo sapiens) (UniProt Q96J92); assay: Selectivity interaction (KinomeScan (DiscoverX)) EUB0000704a WNK4; conditions: at 1 µM
[5] = molecular target: Serine/threonine-protein kinase WNK3 (Homo sapiens) (UniProt Q9BYP7); assay: Selectivity interaction (KinomeScan (DiscoverX)) EUB0000704a WNK3; conditions: at 1 µM
[6] = molecular target: T2, Gamma-aminobutyric acid receptor subunit alpha-1 (Homo sapiens, UniProt P14867); assay: Selectivity interaction (GPCR panel (PDSP screen)) EUB0000704a GABRA1
T2 sequence (P14867 whole entry): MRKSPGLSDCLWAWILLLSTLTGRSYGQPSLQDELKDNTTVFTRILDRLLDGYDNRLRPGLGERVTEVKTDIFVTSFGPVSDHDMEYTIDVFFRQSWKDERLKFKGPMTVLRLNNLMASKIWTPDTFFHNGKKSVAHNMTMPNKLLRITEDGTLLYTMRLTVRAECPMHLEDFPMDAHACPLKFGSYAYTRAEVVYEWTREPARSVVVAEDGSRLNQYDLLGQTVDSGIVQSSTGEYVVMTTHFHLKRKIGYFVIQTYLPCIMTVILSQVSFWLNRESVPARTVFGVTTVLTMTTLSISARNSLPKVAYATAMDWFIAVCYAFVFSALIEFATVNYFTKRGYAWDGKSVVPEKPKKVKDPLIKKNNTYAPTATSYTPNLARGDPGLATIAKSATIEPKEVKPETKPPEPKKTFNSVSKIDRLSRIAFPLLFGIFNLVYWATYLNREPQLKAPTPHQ

[7] = molecular target: Protein kinase C alpha type (Homo sapiens) (UniProt P17252); assay: Selectivity interaction (KinomeScan (DiscoverX)) EUB0000704a PRKCA; conditions: at 1 µM
[8] = molecular target: 5-hydroxytryptamine receptor 7 (Homo sapiens, UniProt P34969); assay: Selectivity interaction (GPCR panel (PDSP screen)) EUB0000252b HTR7
[9] = molecular target: T3, Alpha-2C adrenergic receptor (Homo sapiens, UniProt P18825); assay: Selectivity interaction (GPCR panel (PDSP screen)) EUB0000316b ADRA2C
T3 sequence (P18825 whole entry): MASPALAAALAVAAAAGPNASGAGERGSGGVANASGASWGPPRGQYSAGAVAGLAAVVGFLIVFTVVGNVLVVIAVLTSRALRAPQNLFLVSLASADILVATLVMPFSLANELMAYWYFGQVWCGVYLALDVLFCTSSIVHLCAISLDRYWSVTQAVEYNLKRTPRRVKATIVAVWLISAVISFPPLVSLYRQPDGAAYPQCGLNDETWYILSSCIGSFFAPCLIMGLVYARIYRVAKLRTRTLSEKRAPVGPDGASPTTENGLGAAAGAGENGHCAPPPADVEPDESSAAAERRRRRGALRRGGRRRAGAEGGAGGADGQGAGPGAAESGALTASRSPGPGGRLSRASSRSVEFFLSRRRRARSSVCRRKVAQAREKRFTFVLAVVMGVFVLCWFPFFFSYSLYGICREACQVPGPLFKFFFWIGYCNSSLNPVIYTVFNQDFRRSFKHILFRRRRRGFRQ

[10] = molecular target: Cyclin-dependent kinase 4 (Homo sapiens) (UniProt P11802); assay: Selectivity interaction (KinomeScan (DiscoverX)) EUB0000316b CDK4; conditions: at 1 µM
[11] = molecular target: Mitogen-activated protein kinase 8 (Homo sapiens, UniProt P45983); assay: Selectivity interaction (KinomeScan (DiscoverX)) EUB0000316b MAPK8; conditions: at 1 µM
[12] = molecular target: Serine/threonine-protein kinase WNK2 (Homo sapiens) (UniProt Q9Y3S1); assay: Selectivity interaction (KinomeScan (DiscoverX)) EUB0000316b WNK2; conditions: at 1 µM
[13] = molecular target: T2, Gamma-aminobutyric acid receptor subunit alpha-1; assay: Selectivity interaction (GPCR panel (PDSP screen)) EUB0000316b GABRA1
[14] = molecular target: Mitogen-activated protein kinase kinase kinase 14 (Homo sapiens) (UniProt Q99558); assay: Selectivity interaction (KinomeScan (DiscoverX)) EUB0000316b MAP3K14; conditions: at 1 µM
[15] = molecular target: T4, Receptor-interacting serine/threonine-protein kinase 4 (Homo sapiens) (UniProt P57078); assay: Selectivity interaction (KinomeScan (DiscoverX)) EUB0000316b RIPK4; conditions: at 1 µM
T4 sequence (whole entry): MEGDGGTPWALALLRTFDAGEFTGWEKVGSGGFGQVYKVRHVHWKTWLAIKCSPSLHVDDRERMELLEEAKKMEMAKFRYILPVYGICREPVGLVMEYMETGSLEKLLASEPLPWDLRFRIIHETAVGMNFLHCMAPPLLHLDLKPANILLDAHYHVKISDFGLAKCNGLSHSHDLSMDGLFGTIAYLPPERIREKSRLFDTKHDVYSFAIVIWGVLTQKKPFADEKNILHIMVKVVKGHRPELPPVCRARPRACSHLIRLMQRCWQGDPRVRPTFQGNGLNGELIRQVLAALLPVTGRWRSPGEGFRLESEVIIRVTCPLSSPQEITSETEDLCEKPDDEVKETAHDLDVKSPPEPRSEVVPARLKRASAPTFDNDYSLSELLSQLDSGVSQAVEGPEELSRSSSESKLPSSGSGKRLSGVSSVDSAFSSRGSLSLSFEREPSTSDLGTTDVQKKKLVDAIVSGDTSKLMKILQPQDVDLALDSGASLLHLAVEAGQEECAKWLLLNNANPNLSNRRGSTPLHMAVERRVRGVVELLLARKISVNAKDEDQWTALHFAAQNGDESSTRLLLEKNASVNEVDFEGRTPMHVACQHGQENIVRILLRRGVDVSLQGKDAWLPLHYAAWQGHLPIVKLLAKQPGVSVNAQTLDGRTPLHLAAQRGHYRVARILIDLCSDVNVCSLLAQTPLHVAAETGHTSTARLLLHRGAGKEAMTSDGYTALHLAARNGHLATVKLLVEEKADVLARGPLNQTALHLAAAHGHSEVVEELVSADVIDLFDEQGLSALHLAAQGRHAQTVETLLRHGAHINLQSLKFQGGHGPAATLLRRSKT

Histamine H3 receptor = Histamine H3 receptor (Homo sapiens, UniProt Q9Y5N1); assay: Selectivity interaction (GPCR panel (PDSP screen)) EUB0000714a HRH3
[16] = molecular target: T5, Dual specificity mitogen-activated protein kinase kinase 5 (Homo sapiens) (UniProt Q13163); assay: Selectivity interaction (KinomeScan (DiscoverX)) EUB0000714a MAP2K5; conditions: at 100 nM
T5 sequence (whole entry): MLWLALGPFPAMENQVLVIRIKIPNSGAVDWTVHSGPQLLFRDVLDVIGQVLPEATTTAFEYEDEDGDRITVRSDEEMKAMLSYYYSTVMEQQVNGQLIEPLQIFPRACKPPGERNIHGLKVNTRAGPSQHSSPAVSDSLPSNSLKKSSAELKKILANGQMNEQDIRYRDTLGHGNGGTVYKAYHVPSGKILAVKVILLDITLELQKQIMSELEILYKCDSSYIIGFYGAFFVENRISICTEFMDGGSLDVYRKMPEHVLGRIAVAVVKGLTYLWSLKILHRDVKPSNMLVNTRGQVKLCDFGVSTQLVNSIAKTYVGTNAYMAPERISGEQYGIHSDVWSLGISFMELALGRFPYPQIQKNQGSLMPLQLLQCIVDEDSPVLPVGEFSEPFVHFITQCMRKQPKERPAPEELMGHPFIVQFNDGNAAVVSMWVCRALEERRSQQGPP

[17] = molecular target: Dual specificity mitogen-activated protein kinase kinase 3 (Homo sapiens) (UniProt P46734); assay: Selectivity interaction (KinomeScan (DiscoverX)) EUB0000714a MAP2K3; conditions: at 100 nM
[18] = molecular target: High affinity nerve growth factor receptor (Homo sapiens, UniProt P04629); assay: Selectivity interaction (KinomeScan (DiscoverX)) EUB0000714a NTRK1; conditions: at 100 nM
[19] = molecular target: Phosphatidylinositol 4,5-bisphosphate 3-kinase catalytic subunit alpha isoform (Homo sapiens, UniProt P42336); assay: Selectivity interaction (KinomeScan (DiscoverX)) EUB0000714a PIK3CA; conditions: at 100 nM
Adenosine receptor A3 = molecular target: T6, Adenosine receptor A3 (Homo sapiens, UniProt P0DMS8); assay: Selectivity interaction (Radioligand binding assay (MDS Pharma Service)) EUB0000296b ADORA3
T6 sequence (P0DMS8 whole entry): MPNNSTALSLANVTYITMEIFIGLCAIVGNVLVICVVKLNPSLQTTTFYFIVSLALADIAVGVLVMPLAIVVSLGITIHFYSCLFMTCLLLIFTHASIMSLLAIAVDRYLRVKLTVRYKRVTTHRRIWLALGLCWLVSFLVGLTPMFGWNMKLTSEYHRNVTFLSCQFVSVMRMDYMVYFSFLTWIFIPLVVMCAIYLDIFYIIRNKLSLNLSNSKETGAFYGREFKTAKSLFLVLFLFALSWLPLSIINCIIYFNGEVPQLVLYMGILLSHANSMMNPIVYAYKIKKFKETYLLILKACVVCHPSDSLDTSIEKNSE

[20] = molecular target: T3, Alpha-2C adrenergic receptor; assay: Selectivity interaction (Radioligand binding assay (MDS Pharma Service)) EUB0000296b ADRA2C
[21] = molecular target: Serine/threonine-protein kinase STK11 (Homo sapiens) (UniProt Q15831); assay: Selectivity interaction (KinomeScan (DiscoverX)) EUB0000296b STK11; conditions: at 1 µM
[22] = molecular target: Polyunsaturated fatty acid 5-lipoxygenase (Homo sapiens, UniProt P09917); assay: Selectivity interaction (MSD Pharma/Taiwan screen (enzymes and receptors) ) EUB0000296b ALOX5
[23] = molecular target: Synaptic vesicular amine transporter (Homo sapiens, UniProt Q05940); assay: Selectivity interaction (Radioligand binding assay (MDS Pharma Service)) EUB0000296b SLC18A2
[24] = molecular target: Dual specificity tyrosine-phosphorylation-regulated kinase 1B (Homo sapiens, UniProt Q9Y463); assay: Selectivity interaction (KinomeScan (DiscoverX)) EUB0000296b DYRK1B; conditions: at 1 µM
[25] = molecular target: Mitogen-activated protein kinase 3 (Homo sapiens, UniProt P27361); assay: Selectivity interaction (MSD Pharma/Taiwan screen (enzymes and receptors) ) EUB0000296b MAPK3
[26] = molecular target: Mitogen-activated protein kinase 14 (Homo sapiens, UniProt Q16539); assay: Selectivity interaction (MSD Pharma/Taiwan screen (enzymes and receptors) ) EUB0000296b MAPK14
[27] = molecular target: T1, Sodium-dependent dopamine transporter; assay: Selectivity interaction (Radioligand binding assay (MDS Pharma Service)) EUB0000296b SLC6A3
[28] = molecular target: eIF-2-alpha kinase GCN2 (Homo sapiens) (UniProt Q9P2K8); assay: Selectivity interaction (KinomeScan (DiscoverX)) EUB0000296b EIF2AK4; conditions: at 1 µM
[29] = molecular target: Phosphatidylinositol 4-phosphate 3-kinase C2 domain-containing subunit beta (Homo sapiens) (UniProt O00750); assay: Selectivity interaction (KinomeScan (DiscoverX)) EUB0000296b PIK3C2B; conditions: at 1 µM
[30] = molecular target: T2, Gamma-aminobutyric acid receptor subunit alpha-1; assay: Selectivity interaction (GPCR panel (PDSP screen)) EUB0000296b GABRA1
[31] = molecular target: Epidermal growth factor receptor (Homo sapiens, UniProt P00533); assay: Selectivity interaction (MSD Pharma/Taiwan screen (enzymes and receptors) ) EUB0000296b EGFR
[32] = molecular target: Protein kinase C epsilon type (Homo sapiens) (UniProt Q02156); assay: Selectivity interaction (KinomeScan (DiscoverX)) EUB0000296b PRKCE; conditions: at 1 µM

T1 sequence (Q01959 whole entry): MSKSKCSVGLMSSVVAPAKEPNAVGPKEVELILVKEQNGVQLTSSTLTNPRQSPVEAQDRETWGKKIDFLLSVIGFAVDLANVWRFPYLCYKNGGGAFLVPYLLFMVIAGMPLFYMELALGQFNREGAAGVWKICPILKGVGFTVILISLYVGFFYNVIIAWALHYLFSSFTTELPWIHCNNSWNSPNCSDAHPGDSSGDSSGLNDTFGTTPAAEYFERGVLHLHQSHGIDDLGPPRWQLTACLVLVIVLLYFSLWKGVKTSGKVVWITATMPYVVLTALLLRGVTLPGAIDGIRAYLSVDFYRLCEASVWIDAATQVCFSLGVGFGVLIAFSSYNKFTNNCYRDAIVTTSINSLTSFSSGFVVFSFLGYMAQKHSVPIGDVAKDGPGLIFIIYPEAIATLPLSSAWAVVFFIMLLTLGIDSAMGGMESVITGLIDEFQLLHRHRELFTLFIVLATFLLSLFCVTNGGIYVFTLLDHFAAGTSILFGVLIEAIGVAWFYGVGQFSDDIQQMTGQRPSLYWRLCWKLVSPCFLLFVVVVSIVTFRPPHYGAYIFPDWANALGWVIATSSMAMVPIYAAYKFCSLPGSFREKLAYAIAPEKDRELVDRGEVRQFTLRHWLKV
Serine/threonine-protein kinase STK11 (Homo sapiens), sequence (Q15831 whole entry): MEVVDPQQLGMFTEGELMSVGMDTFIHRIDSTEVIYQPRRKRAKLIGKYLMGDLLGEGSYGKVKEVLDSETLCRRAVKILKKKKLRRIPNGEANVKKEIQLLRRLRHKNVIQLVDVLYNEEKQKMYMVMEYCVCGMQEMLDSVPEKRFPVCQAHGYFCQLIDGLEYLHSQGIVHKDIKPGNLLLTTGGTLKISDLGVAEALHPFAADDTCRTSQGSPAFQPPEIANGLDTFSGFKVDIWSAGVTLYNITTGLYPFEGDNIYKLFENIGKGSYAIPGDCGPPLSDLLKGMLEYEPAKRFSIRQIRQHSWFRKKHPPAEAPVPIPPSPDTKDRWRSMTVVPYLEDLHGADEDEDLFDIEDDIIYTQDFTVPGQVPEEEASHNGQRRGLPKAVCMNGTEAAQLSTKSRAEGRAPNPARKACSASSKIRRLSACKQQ
Phosphatidylinositol 4-phosphate 3-kinase C2 domain-containing subunit beta (Homo sapiens), sequence (O00750 whole entry, the tested form may be a part): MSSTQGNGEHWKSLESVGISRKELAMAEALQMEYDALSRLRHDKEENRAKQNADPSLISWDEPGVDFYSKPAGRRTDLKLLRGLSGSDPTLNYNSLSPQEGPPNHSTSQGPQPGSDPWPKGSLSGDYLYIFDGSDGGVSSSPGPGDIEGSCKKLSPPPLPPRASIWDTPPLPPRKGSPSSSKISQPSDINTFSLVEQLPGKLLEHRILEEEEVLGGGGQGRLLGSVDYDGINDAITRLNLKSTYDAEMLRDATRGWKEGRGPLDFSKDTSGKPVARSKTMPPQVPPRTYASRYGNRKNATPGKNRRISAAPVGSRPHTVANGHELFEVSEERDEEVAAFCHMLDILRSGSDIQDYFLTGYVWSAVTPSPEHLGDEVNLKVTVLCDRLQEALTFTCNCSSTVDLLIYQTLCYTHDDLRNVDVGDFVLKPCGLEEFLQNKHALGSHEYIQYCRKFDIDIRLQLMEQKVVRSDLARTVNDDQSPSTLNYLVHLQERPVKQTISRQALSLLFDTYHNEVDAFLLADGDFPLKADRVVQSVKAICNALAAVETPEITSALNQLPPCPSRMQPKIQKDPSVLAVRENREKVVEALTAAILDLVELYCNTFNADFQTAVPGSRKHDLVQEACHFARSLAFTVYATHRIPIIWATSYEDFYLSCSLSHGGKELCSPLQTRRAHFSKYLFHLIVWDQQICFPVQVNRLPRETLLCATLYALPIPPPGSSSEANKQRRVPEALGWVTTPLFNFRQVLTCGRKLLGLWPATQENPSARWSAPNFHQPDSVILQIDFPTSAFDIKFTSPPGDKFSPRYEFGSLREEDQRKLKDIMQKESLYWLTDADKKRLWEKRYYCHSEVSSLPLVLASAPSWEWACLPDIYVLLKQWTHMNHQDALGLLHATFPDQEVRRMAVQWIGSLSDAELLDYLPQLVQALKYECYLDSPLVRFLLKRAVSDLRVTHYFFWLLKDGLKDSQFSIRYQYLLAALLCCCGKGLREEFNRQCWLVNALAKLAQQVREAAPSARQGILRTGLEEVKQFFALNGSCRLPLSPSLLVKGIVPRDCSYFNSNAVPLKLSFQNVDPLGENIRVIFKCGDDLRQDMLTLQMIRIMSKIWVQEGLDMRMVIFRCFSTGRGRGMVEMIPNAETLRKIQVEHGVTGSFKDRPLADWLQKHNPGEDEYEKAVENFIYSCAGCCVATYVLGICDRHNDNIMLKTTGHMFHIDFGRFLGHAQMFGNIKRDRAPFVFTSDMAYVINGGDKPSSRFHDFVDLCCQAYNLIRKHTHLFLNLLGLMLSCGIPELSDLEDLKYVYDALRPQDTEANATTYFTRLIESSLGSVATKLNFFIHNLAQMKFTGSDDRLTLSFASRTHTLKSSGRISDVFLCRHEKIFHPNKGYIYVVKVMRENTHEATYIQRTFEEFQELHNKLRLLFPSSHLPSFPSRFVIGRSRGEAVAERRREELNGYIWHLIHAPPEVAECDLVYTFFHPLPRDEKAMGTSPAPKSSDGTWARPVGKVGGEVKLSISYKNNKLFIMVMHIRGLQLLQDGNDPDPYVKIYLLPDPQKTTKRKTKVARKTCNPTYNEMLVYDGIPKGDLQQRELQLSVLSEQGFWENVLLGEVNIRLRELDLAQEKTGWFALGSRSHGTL
eIF-2-alpha kinase GCN2 (Homo sapiens), sequence (Q9P2K8 whole entry, the tested form may be a part): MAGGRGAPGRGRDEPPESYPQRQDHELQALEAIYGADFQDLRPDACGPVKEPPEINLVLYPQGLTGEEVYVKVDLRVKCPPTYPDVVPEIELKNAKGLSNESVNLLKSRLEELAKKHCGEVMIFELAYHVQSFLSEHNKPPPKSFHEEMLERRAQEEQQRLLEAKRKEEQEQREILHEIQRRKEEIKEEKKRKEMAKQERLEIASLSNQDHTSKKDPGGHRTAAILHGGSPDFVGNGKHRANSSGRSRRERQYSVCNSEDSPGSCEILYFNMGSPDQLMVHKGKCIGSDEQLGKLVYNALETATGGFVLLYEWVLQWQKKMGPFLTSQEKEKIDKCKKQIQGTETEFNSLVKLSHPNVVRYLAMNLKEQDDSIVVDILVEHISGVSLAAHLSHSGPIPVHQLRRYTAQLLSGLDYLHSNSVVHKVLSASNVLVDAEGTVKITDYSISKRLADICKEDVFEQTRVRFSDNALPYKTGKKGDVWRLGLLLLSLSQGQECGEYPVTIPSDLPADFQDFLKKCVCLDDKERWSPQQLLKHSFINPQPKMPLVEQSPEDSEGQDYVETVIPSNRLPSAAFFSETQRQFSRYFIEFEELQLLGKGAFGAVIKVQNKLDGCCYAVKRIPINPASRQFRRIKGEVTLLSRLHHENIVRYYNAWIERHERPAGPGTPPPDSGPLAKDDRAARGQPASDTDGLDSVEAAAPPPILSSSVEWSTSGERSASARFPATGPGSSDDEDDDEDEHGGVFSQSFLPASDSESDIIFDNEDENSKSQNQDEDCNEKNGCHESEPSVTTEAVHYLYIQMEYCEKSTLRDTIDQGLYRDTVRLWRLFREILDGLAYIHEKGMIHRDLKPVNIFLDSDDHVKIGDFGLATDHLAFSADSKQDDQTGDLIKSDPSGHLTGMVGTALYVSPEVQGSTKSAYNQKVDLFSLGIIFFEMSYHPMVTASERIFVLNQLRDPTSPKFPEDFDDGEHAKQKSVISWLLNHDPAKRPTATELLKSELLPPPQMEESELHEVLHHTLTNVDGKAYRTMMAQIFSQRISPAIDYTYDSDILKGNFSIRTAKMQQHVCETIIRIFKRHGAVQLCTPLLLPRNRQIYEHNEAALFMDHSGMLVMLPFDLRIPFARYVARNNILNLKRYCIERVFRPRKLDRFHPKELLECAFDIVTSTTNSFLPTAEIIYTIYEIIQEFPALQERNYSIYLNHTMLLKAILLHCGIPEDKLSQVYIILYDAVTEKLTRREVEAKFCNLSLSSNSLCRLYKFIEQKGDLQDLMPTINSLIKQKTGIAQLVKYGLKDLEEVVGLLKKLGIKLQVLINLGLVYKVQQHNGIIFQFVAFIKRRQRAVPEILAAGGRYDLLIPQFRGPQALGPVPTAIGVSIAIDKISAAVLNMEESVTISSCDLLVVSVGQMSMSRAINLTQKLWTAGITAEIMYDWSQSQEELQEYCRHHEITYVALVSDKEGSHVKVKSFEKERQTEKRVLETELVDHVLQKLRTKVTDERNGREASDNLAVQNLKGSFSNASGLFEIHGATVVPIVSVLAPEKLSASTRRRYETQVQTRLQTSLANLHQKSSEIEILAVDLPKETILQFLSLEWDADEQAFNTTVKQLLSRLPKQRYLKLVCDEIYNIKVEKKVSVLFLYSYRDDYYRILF
Cyclin-dependent kinase 4 (Homo sapiens), sequence (P11802 whole entry): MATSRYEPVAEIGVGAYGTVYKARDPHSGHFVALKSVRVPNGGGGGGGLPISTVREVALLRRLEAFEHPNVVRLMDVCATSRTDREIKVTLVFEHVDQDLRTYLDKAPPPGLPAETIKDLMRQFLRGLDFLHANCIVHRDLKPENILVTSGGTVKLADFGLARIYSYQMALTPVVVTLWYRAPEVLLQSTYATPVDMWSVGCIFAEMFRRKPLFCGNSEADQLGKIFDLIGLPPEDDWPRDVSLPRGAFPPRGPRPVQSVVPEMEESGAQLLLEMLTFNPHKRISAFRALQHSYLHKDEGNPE
Histamine H3 receptor, sequence (Q9Y5N1 whole entry): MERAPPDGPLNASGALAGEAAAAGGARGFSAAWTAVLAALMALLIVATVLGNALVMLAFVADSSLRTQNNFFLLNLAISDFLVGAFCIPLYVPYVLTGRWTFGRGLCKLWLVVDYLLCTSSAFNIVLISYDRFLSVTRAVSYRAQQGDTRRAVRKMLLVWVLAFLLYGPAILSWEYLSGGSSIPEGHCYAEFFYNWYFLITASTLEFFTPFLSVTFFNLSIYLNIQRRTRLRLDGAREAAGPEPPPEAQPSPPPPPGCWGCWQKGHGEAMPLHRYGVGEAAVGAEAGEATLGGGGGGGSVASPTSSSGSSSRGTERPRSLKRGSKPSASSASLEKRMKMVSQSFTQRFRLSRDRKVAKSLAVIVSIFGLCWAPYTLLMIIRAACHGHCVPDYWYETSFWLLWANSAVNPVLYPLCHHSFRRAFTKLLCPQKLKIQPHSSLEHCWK

Cc1ccc(-c2cnc([C@@]3(O)CC[C@H](C(=O)O)C(C)(C)C3)s2)cc1Nc1cccc(C(F)(F)F)n1 [MRL-SYKi-NC]
% of control [1]: 38% | Ki [2]: > 10000 nM | % of control [3]: 20% | % of control [4]: 32% | % of control [5]: 0% | Ki [6]: 774 nM | % of control [7]: 33%

N#CC1(c2ccccn2)CCN(Cc2cc(C(=O)O)c(=O)n3ccccc23)CC1 [MSD-M1PAM]
Ki [8]: > 10000 nM

CC(=O)c1c(NS(C)(=O)=O)c2cc(-c3ccc(Cl)cc3)c(-c3ccc(Cl)cc3Cl)nc2n(C)c1=O [MRL-CB1-NC]
Ki [9]: > 10000 nM | % of control [10]: 63% | % of control [11]: 63% | % of control [12]: 62% | Ki [13]: 1670 nM | % of control [14]: 63% | % of control [15]: 61%

Cc1cc(Nc2nccc(C)n2)cc(-c2cnc([C@@]3(O)CC[C@H](C(=O)O)C(C)(C)C3)s2)c1 [MRL-SYKi]
Ki (Histamine H3 receptor): > 10000 nM | % of control [16]: 25.2% | % of control [17]: 29.5% | % of control [18]: 30.2% | % of control [19]: 14.7%

CC(=O)Nc1c(C(C)=O)c(=O)n(C)c2nc(-c3ccc(Cl)cc3Cl)c(-c3ccc(Cl)cc3)cc12 [NAPHTHYRIDINONE]
Ki (Adenosine receptor A3): 773 nM | Ki [20]: 1130 nM | % of control [21]: 43% | IC50 [22]: 1340 nM | Ki [23]: 648 nM | % of control [24]: 35% | IC50 [25]: 8610 nM | IC50 [26]: 3680 nM | Ki [27]: 799 nM | % of control [28]: 48% | % of control [29]: 48% | Ki [30]: 82 nM | IC50 [31]: 3260 nM | % of control [32]: 48%
